Assay results as given in the NIST ThermoML archive (doi:10.1021/acs.jced.7b00717).
Numbers after ± are expanded uncertainties.

What was measured:
[1] = xn = mol fraction of the nth substance listed; conditions: Liquid, dynamic ligfht scattering
[2] = refractive index (other wavelength) (dimensionless); xn = mol fraction of the nth substance listed; conditions: Liquid, Wavelength=532 nm

`OCC(O)CO` [glycerol] + O showed a binary diffusion coefficient ([1]; 322.99 K, x1 = 0.5) of 2.54e-10 m2/s, a binary diffusion coefficient ([1]; 323.07 K, x1 = 0.699) of 1.4e-10 m2/s and a binary diffusion coefficient ([1]; 323.15 K, x1 = 0.299) of 5.6e-10 m2/s. For the same compound, the binary diffusion coefficient ([1]; 347.98 K, x1 = 0.5) was 5.69e-10 m2/s, the binary diffusion coefficient ([1]; 348.19 K, x1 = 0.299) was 1.04e-09 m2/s and the binary diffusion coefficient ([1]; 351.63 K, x1 = 0.699) was 3.69e-10 m2/s. It also gave a binary diffusion coefficient ([1]; 372.92 K, x1 = 0.699) of 6.93e-10 m2/s, a binary diffusion coefficient ([1]; 373.17 K, x1 = 0.5) of 1.04e-09 m2/s and a binary diffusion coefficient ([1]; 373.3 K, x1 = 0.299) of 1.73e-09 m2/s. It also gave a binary diffusion coefficient ([1]; 397.7 K, x1 = 0.699) of 1.45e-09 m2/s, a binary diffusion coefficient ([1]; 398.05 K, x1 = 0.299) of 2.84e-09 m2/s and a binary diffusion coefficient ([1]; 398.12 K, x1 = 0.5) of 1.9e-09 m2/s. It also gave a binary diffusion coefficient ([1]; 422.61 K, x1 = 0.299) of 4.12e-09 m2/s, a binary diffusion coefficient ([1]; 423.15 K, x1 = 0.5) of 2.87e-09 m2/s and a binary diffusion coefficient ([1]; 448.21 K, x1 = 0.5) of 4.8e-09 m2/s. It also gave a refractive index ([2]; 295.65 K, Standard Abbe refractometry, x1 = 0.299) of 1.422 ± 0.001, a refractive index ([2]; 296.15 K, beam displacement method, x1 = 0.699) of 1.461 ± 0.005 and a refractive index ([2]; 314.15 K, Standard Abbe refractometry, x1 = 0.299) of 1.42 ± 0.001. For the same compound, the refractive index ([2]; 322.99 K, beam displacement method, x1 = 0.5) was 1.436 ± 0.005, the refractive index ([2]; 323.15 K, beam displacement method, x1 = 0.299) was 1.417 ± 0.005 and the refractive index ([2]; 331.65 K, Standard Abbe refractometry, x1 = 0.299) was 1.415 ± 0.001. The refractive index ([2]; 347.96 K, beam displacement method, x1 = 0.5) was 1.43 ± 0.005, the refractive index ([2]; 348.15 K, beam displacement method, x1 = 0.299) was 1.411 ± 0.005 and the refractive index ([2]; 348.45 K, beam displacement method, x1 = 0.699) was 1.445 ± 0.005. It also gave a refractive index ([2]; 373.05 K, beam displacement method, x1 = 0.699) of 1.438 ± 0.005, a refractive index ([2]; 373.16 K, beam displacement method, x1 = 0.299) of 1.403 ± 0.005 and a refractive index ([2]; 373.23 K, beam displacement method, x1 = 0.5) of 1.423 ± 0.005. It also gave a refractive index ([2]; 398.11 K, beam displacement method, x1 = 0.5) of 1.417 ± 0.005, a refractive index ([2]; 398.15 K, beam displacement method, x1 = 0.299) of 1.396 ± 0.005 and a refractive index ([2]; 398.25 K, beam displacement method, x1 = 0.699) of 1.431 ± 0.005. The refractive index ([2]; 421.85 K, beam displacement method, x1 = 0.699) was 1.424 ± 0.005 and the refractive index ([2]; 423.15 K, beam displacement method, x1 = 0.5) was 1.409 ± 0.005.
